Earlier results in patent US20090197952A1, “Glyceride Esters for the Treatment of Diseases Associated with Reduced Neuronal Metabolism of Glucose” (priority 2006, published 2009).

What was measured:
[1] = tested on: rats; details: rat, in vivo
[2] = tested on: patients; details: infused at 8-9.3 g/Kg body weight/day to affect hyperketonemia
[3] = tested on: rats; details: infusion
[4] = tested on: mice; details: direct administration
[5] = tested on: rat; details: rat feeding studies

In the case of CC(=O)CC(=O)OCC(COC(=O)CC(C)=O)OC(=O)CC(C)=O [triacetoacetin], the tolerated amount [1] is given as 10 g/Kg body weight/day.

For bisacetoacetin, the detrimental side effects [2] is given as “No detrimental side effects”.

In the case of CC(=O)CC(=O)OCC(O)CO (stereo not drawn) [monoacetoacetin], the detrimental side effects ([3]; elevated levels of ketone bodies achieved) is listed as “without any detrimental side effects” and the “rate at which it could be safely infused” value ([3]; level equivalent to 2/3 of the rat's daily caloric requirement) is listed as “at least 50 g/kg body weight/day”.

In the case of CC(O)CC(=O)O (stereo not drawn) [3-hydroxybutyrate], the protection against neurotoxin [4] is listed as “can protect mice against a neurotoxin”.

For CC(O)CC(=O)OCC(O)CO (racemic) [1-(DL-3-hydroxybutyryl)-glycerol], the acute toxicity [5] is given as “not acutely toxic” and the chronic toxicity [5] is given as “did not show any indication of chronic toxicity”.

In the case of CC(O)CC(=O)OCC(COC(=O)CC(C)O)OC(=O)CC(C)O (racemic) [DL-tris-(3-hydroxybutyrl)-glycerol], the acute toxicity [5] is given as “not acutely toxic” and the chronic toxicity [5] is given as “did not show any indication of chronic toxicity”.
